{"source": "patent US20160039904A1", "about": "“STABILIZED SINGLE HUMAN CD4 DOMAINS AND FUSION PROTEINS” (priority 2013, published 2016)", "key": {"HIV-1 KNH1144.EC1": {"test_system": "HIV-1 KNH1144.EC1", "experiment": "TZM-bl cell-based neutralization assay", "settings": "Table 6; KNH1144.EC1, clade A, R5"}, "HIV-1 JRFL": {"test_system": "HIV-1 JRFL", "experiment": "Pseudotyped HIV-1 neutralization (HOS-CD4-CCR5 cells)", "format": "cell-based", "settings": "R5", "description": "(§1) To determine the potency and breadth of HIV-1 neutralization by the D1 mutants, viruses pseudotyped with Envs from HIV-1 isolates representing clades A-E and using either CCR5 (R5) or CXCR4 (X4) or both (R5X4) as a coreceptor were included. Pseudoviruses were derived from 293T cells and a neutralization assay was performed in duplicate using HOS-CD4-CCR5 (for all R5 and dual tropic viruses) or HOS-CD4-CXCR4 cell lines as described in Chen et al., Proc. Natl. Acad. Sci. USA, 105: 17121-17126 (2008)). Luminescence was measured 48 hours post-infection and the percentage neutralization was calculated by the following formula: (1—average RLU of inhibitor-containing wells/average RLU or virus-only wells)×100."}, "HIV-1 Z2Z6": {"test_system": "HIV-1 Z2Z6", "experiment": "Pseudotyped HIV-1 neutralization (HOS-CD4-CCR5 cells)", "format": "cell-based", "settings": "Table 3; Z2Z6, clade D, R5", "description": "as §1"}, "HIV-1 JRCSF": {"test_system": "HIV-1 JRCSF", "experiment": "Pseudotyped HIV-1 neutralization (HOS-CD4-CCR5 cells)", "format": "cell-based", "settings": "Table 3, clade B, R5", "description": "as §1"}, "HIV-1 CM243": {"test_system": "HIV-1 CM243", "experiment": "Pseudotyped HIV-1 neutralization (HOS-CD4-CCR5 cells)", "format": "cell-based", "settings": "Table 3; CM243, clade E, R5", "description": "as §1"}, "HIV-1 89.6": {"test_system": "HIV-1 89.6", "experiment": "Pseudotyped HIV-1 neutralization (HOS-CD4-CCR5 cells)", "format": "cell-based", "settings": "Table 3; 89.6, clade B, R5X4", "description": "as §1"}, "HIV-1 GXC": {"test_system": "HIV-1 GXC", "experiment": "Pseudotyped HIV-1 neutralization (HOS-CD4-CCR5 cells)", "format": "cell-based", "settings": "Table 3, clade C, R5", "description": "as §1"}, "HIV-1 Bal": {"test_system": "HIV-1 Bal", "experiment": "Pseudotyped HIV-1 neutralization (HOS-CD4-CCR5 cells)", "format": "cell-based", "settings": "R5", "description": "as §1"}, "HIV-1 CM240.EC1": {"test_system": "HIV-1 CM240.EC1", "experiment": "TZM-bl cell-based neutralization assay", "settings": "Table 6; CM240.EC1, clade AE, R5"}, "HIV-1 Env JRFL": {"test_system": "HIV-1 Env JRFL", "experiment": "HIV-1 Env-mediated cell-cell fusion", "format": "cell-based", "settings": "Table 5, clade B, R5"}, "HIV-1 A07412VRC12A": {"test_system": "HIV-1 A07412VRC12A", "experiment": "TZM-bl cell-based neutralization assay", "settings": "Table 6, clade D, R5"}, "[1]": {"test_system": "HIV-1 isolates from clades A to D, AE, and AG", "experiment": "TZM-bl cell-based neutralization assay, means over the panel (n=12)", "settings": "Table 6, all viruses, >167 nM assigned 200, >250 assigned 300"}, "HIV-1 55815.EC3": {"test_system": "HIV-1 55815.EC3", "experiment": "TZM-bl cell-based neutralization assay", "settings": "Table 6; 55815.EC3, clade AG, R5"}, "[2]": {"settings": "next 5 days of incubation (days 5-10), 37° C.", "description": "The proteins were then assessed for their stability against degradation during 15 days of incubation with PBS (see FIG. 12A) or human serum (see FIG. 12B) at 37° C."}, "HIV-1 KNH1088.EC5": {"test_system": "HIV-1 KNH1088.EC5", "experiment": "TZM-bl cell-based neutralization assay", "settings": "Table 6; KNH1088.EC5, clade A, R5"}}, "note": "Read-outs that look alike come from different tables or passages of the source.", "data": [{"substance": "4Dm2m: bispecific multivalent fusion protein of mD1.22 and m36.4; two SEQ ID NO: 20 and two SEQ ID NO: 21 chains", "values": [{"measurement": "IC50", "setting": "HIV-1 KNH1144.EC1", "value": 0.081, "unit": "nM"}, {"measurement": "IC90", "setting": "HIV-1 KNH1144.EC1", "value": 1, "unit": "nM"}, {"measurement": "IC50", "setting": "HIV-1 JRFL; Table 2, clade B", "value": 0.06, "unit": "nM"}, {"measurement": "IC90", "setting": "HIV-1 JRFL; Table 2, clade B", "value": 0.29, "unit": "nM"}, {"measurement": "IC50", "setting": "HIV-1 JRFL; Table 3, clade B", "value": "0.14 ± 0.01", "unit": "nM"}, {"measurement": "IC90", "setting": "HIV-1 JRFL; Table 3, clade B", "value": "0.39 ± 0.04", "unit": "nM"}, {"measurement": "IC50", "setting": "HIV-1 Z2Z6", "value": "0.14 ± 0.04", "unit": "nM"}, {"measurement": "IC90", "setting": "HIV-1 Z2Z6", "value": "1.1 ± 0.1", "unit": "nM"}, {"measurement": "IC50", "setting": "HIV-1 JRCSF", "value": "0.29 ± 0.18", "unit": "nM"}, {"measurement": "IC90", "setting": "HIV-1 JRCSF", "value": "3 ± 2.9", "unit": "nM"}, {"measurement": "IC50", "setting": "HIV-1 CM243", "value": "0.29 ± 0.11", "unit": "nM"}, {"measurement": "IC90", "setting": "HIV-1 CM243", "value": "1.2 ± 0.6", "unit": "nM"}, {"measurement": "IC50", "setting": "HIV-1 89.6", "value": "< 0.021", "unit": "nM"}, {"measurement": "IC90", "setting": "HIV-1 89.6", "value": "< 0.021", "unit": "nM"}, {"measurement": "IC50", "setting": "HIV-1 GXC", "value": "0.61 ± 0.36", "unit": "nM"}, {"measurement": "IC90", "setting": "HIV-1 GXC", "value": 4, "unit": "nM"}, {"measurement": "IC50", "setting": "HIV-1 Bal; Table 2, clade B", "value": 0.12, "unit": "nM"}, {"measurement": "IC90", "setting": "HIV-1 Bal; Table 2, clade B", "value": 0.36, "unit": "nM"}, {"measurement": "IC50", "setting": "HIV-1 Bal; Table 3, clade B", "value": "0.15 ± 0.04", "unit": "nM"}, {"measurement": "IC90", "setting": "HIV-1 Bal; Table 3, clade B", "value": "0.5 ± 0.07", "unit": "nM"}, {"measurement": "IC50", "setting": "HIV-1 CM240.EC1", "value": 0.45, "unit": "nM"}, {"measurement": "IC90", "setting": "HIV-1 CM240.EC1", "value": 3.7, "unit": "nM"}, {"measurement": "IC50", "setting": "HIV-1 Env JRFL", "value": "3.6 ± 0.2", "unit": "nM"}, {"measurement": "IC90", "setting": "HIV-1 Env JRFL", "value": "8.8 ± 0.4", "unit": "nM"}, {"measurement": "IC50", "setting": "HIV-1 A07412VRC12A", "value": 0.75, "unit": "nM"}, {"measurement": "IC90", "setting": "HIV-1 A07412VRC12A", "value": 5.7, "unit": "nM"}, {"measurement": "IC50", "setting": "[1]; read-out: IC50, arithmetic mean", "value": 0.72, "unit": "nM"}, {"measurement": "IC50", "setting": "[1]; read-out: IC50, geometric mean", "value": 0.28, "unit": "nM"}, {"measurement": "IC90", "setting": "[1]; read-out: IC90, geometric mean", "value": 2.4, "unit": "nM"}, {"measurement": "IC50", "setting": "HIV-1 55815.EC3", "value": 0.084, "unit": "nM"}, {"measurement": "IC90", "setting": "HIV-1 55815.EC3", "value": 0.61, "unit": "nM"}, {"measurement": "degradation in human serum", "setting": "[2]", "value": "slower than that of CD4-Ig"}, {"measurement": "IC50", "setting": "HIV-1 KNH1088.EC5", "value": 0.48, "unit": "nM"}]}]}
